Data taken from PubChem BioAssay (NCI).
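These data come from cells grown in 96-well plates and exposed to compound for 48 hours at five concentrations. The concentration for 50% growth inhibition is given as GI50. At the TGI there is no net growth.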

How the values were obtained:
Experiment in all cases: NCI tumour cell line growth inhibition, 48 h
[1] = tested on: KM20L2 colon
[2] = tested on: LXFL 529 NSCLC
[3] = tested on: M19-MEL melanoma
[4] = tested on: RXF-631 renal
[5] = tested on: SNB-78 CNS

| Compound | TGI [1] | TGI [2] | TGI [3] | TGI [4] | TGI [5] | GI50 [1] | GI50 [2] | GI50 [3] | GI50 [5] |
| --- | --- | --- | --- | --- | --- | --- | --- | --- | --- |
| CC(C)c1cccc(C(C)C)c1NC(=O)C(=O)Cc1nc2ccc([N+](=O)[O-])cc2[nH]c1=O | > 100 µM | > 100 µM | > 100 µM | > 100 µM | – | – | – | – | – |
| CCOC1=C2N=C(C(CC)c3ccccc3F)N=C2C(=O)c2ccccc21 (configuration not stated) | > 100 µM | > 100 µM | > 100 µM | > 100 µM | – | – | – | – | – |
| CC1=C(c2nc3ccccc3s2)C(=O)OC1(C)C | > 100 µM | > 100 µM | > 100 µM | > 100 µM | > 100 µM | – | – | – | – |
| COc1ccc(N2C(=O)c3c(c4[nH]c5ccccc5c4c4ccc(C(C)(C)C)cc34)C2=O)cc1 | > 100 µM | > 100 µM | > 100 µM | > 100 µM | 60 µM | – | – | – | – |
| CCOC(=O)c1c2ccc(/C=C/c3ccccn3)ccc-2c(C(=O)OCC)c1N | > 100 µM | > 100 µM | > 100 µM | > 100 µM | – | – | – | – | – |
| COc1ccc2[nH]c3c(c2c1)[C@H](c1ccccc1)C[C@@H]1C(=O)N(c2ccccc2)C(=O)[C@H]31 | > 100 µM | > 100 µM | > 100 µM | > 100 µM | > 100 µM | – | – | – | – |
| N#CC(NNC(=O)Cc1ccccc1)c1cccc(O)c1 (configuration not stated) | – | > 100 µM | > 100 µM | – | > 100 µM | – | – | – | – |
| Cc1cc2ncn(-c3nc4ccccc4nc3C(C#N)S(C)(=O)=O)c2cc1C (configuration not stated) | > 100 µM | > 100 µM | > 100 µM | – | > 100 µM | – | – | – | – |
| COCC(C)(C)N=CN1Cc2cc3ccccc3nc2C1 | > 100 µM | – | > 100 µM | – | – | – | – | – | – |
| CC(C)/C=C1\CCC(CN(C)C)C1=O (configuration not stated) | 28.6 µM | 2.85 µM | 33.7 µM | – | 23.8 µM | – | – | – | – |
| CC(=O)Nc1[nH]n(C)c(=O)c1-c1nnc(C)s1 | > 100 µM | > 100 µM | – | > 100 µM | > 100 µM | – | – | – | – |
| CC(C)(C)N=CN1C=Cc2nc3ccccc3cc2C1 | > 100 µM | > 100 µM | > 100 µM | > 100 µM | > 100 µM | – | – | – | – |
| O=C1[C@@H]2C(c3ccc(Br)cc3)=NO[C@@H]2C(=O)N1c1ccc(Cc2ccc(N3C(=O)[C@H]4C(c5ccc(Br)cc5)=NO[C@H]4C3=O)cc2)cc1 | > 40 µM | > 40 µM | > 40 µM | > 40 µM | > 40 µM | > 40 µM | > 40 µM | > 40 µM | > 40 µM |
| COC(=O)C(=O)C(C(=O)OC)C(=O)C(=O)Nc1c(C)cccc1C (configuration not stated) | > 100 µM | > 100 µM | > 100 µM | > 100 µM | > 100 µM | – | – | – | – |
| COc1cc2ccc3c4ccccc4cnc3c2cc1OC | > 100 µM | > 100 µM | > 100 µM | > 100 µM | > 100 µM | – | – | – | – |
| CCOc1ccccc1N=Nc1ccc2oc(=O)c(C(C)=O)cc2c1 | > 100 µM | > 100 µM | > 100 µM | – | > 100 µM | – | – | – | – |
| Nc1nc2c(N)cc(C(F)(F)F)cc2nc1-c1ccccc1 | > 100 µM | > 100 µM | > 100 µM | – | > 100 µM | – | – | – | – |
| O=Cc1c[nH]c2c(=O)[nH]cnc12 | – | > 100 µM | > 100 µM | – | > 100 µM | – | – | – | – |
| CC(C)N(C(=O)C12C3C4C1C1C2C3C41C#N)C(C)C (configuration not stated) | > 100 µM | > 100 µM | > 100 µM | > 100 µM | > 100 µM | – | – | – | – |
| CC1=CC2C(C=C1)S(=O)(=O)N1CC21c1ccccc1 (configuration not stated) | > 100 µM | > 100 µM | > 100 µM | – | > 100 µM | – | – | – | – |
| O=C(Cc1ccccc1)NN1C(=O)C(Cl)C1c1ccccc1Cl (configuration not stated) | > 100 µM | > 100 µM | > 100 µM | – | > 100 µM | – | – | – | – |
